Source: patent EP4745137A1 (Gluetacs Therapeutics (Shanghai) Co., Ltd., priority 2023, dated 2025)

Experiments:
[1] = target: T1, WEE1 (Homo sapiens, UniProt P30291+Q96SW2); test: Western-blot assay of substrate protein degradation in hPBMCs, WEE1; format: cell-based; details: 24 hours of compound treatment
T1 construct: endogenous in cells; host or cells: hPBMCs (Milecell Biotechnologies)

[2] = target: T2, IKZF1 (Homo sapiens, UniProt Q13422+Q96SW2); test: Western-blot assay of substrate protein degradation in hPBMCs, IKZF1; format: cell-based; details: 24 hours of compound treatment
T2 construct: endogenous in cells; host or cells: hPBMCs (Milecell Biotechnologies)
T2 sequence (Q13422 whole entry): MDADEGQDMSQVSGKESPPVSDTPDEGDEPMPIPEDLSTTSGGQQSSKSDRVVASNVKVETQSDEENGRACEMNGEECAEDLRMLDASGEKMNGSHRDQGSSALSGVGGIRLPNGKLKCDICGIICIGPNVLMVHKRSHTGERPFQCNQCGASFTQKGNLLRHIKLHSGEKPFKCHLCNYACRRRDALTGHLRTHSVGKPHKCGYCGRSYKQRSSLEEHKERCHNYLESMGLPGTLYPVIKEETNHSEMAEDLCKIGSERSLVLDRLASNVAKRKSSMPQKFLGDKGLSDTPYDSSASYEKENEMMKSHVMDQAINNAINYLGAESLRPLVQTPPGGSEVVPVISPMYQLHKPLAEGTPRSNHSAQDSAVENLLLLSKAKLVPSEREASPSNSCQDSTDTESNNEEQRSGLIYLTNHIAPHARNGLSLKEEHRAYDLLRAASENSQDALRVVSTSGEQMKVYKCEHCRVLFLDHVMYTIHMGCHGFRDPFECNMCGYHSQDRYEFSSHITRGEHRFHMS
T2 sequence (Q96SW2 whole entry): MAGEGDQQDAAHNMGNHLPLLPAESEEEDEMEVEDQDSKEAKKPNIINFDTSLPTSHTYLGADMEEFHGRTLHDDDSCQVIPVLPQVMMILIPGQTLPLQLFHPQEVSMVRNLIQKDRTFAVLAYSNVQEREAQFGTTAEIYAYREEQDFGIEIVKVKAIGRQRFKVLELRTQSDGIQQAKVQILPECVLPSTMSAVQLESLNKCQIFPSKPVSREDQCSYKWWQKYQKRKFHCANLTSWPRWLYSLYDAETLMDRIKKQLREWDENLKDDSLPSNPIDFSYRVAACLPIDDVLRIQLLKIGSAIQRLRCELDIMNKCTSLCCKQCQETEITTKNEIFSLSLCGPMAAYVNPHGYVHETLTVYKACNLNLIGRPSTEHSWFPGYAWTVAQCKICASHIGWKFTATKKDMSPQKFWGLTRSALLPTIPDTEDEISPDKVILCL
T2 sequence (Q16531 whole entry partner): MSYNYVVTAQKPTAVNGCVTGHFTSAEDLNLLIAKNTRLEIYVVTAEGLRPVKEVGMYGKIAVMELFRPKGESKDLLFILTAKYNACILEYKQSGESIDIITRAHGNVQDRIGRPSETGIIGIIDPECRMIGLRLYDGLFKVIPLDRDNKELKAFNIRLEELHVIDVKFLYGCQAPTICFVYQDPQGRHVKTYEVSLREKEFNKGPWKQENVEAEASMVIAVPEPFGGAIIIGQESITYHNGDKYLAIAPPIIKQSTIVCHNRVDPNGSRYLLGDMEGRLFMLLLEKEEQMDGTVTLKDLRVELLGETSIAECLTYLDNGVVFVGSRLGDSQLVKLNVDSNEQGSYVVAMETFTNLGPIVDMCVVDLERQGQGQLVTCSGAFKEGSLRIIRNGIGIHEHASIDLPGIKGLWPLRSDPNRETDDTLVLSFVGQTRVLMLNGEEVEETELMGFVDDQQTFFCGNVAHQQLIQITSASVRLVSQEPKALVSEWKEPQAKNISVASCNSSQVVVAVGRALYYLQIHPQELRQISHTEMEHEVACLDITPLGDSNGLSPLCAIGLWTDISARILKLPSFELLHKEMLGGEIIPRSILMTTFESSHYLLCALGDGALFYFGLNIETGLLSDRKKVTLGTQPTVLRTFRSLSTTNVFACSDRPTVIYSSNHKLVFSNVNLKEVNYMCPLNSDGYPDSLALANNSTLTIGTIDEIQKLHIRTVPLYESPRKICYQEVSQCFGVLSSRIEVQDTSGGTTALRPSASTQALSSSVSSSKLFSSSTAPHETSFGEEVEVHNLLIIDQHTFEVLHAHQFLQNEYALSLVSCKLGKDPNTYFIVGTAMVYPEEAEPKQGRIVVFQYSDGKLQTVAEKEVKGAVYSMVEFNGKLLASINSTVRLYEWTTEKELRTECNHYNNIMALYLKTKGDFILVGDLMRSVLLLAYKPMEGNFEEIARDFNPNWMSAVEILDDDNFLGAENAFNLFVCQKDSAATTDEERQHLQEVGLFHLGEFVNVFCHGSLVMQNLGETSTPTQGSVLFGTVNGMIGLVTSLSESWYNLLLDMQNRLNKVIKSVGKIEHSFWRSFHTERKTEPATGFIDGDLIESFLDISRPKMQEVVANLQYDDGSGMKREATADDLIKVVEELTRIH

[3] = target: T3, IKZF2 (Homo sapiens, UniProt Q96SW2+Q9UKS7); test: Western-blot assay of substrate protein degradation in hPBMCs, IKZF2; format: cell-based; details: 24 hours of compound treatment
T3 construct: endogenous in cells; host or cells: hPBMCs (Milecell Biotechnologies)

[4] = target: T4, IKZF3 (Homo sapiens, UniProt Q96SW2+Q9UKT9); test: Western-blot assay of substrate protein degradation in hPBMCs, IKZF3; format: cell-based; details: 24 hours of compound treatment
T4 construct: endogenous in cells; host or cells: hPBMCs (Milecell Biotechnologies)
T4 sequence (Q9UKT9 whole entry): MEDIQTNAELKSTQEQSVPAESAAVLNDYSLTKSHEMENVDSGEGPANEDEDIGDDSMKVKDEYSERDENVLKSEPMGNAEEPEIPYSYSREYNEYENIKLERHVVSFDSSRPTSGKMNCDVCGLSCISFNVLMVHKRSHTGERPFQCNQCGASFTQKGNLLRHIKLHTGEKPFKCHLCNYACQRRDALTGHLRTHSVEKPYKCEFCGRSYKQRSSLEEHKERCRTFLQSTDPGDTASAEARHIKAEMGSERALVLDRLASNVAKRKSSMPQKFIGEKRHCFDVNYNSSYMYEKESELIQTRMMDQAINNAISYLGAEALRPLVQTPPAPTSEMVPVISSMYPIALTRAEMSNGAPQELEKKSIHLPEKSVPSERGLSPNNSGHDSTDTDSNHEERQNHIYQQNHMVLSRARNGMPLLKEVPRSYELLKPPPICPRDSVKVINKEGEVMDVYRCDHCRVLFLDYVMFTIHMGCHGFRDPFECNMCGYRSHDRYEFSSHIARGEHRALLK
T4 sequence (Q96SW2 whole entry): as the sequence (Q96SW2 whole entry) above
T4 sequence (Q16531 whole entry partner): as the sequence (Q16531 whole entry partner) above

[5] = target: T5, CK1α (Homo sapiens, UniProt P48729+Q96SW2); test: Western-blot assay of substrate protein degradation in hPBMCs, CK1α; format: cell-based; details: 24 hours of compound treatment
T5 construct: endogenous in cells; host or cells: hPBMCs (Milecell Biotechnologies)
T5 sequence (P48729 whole entry): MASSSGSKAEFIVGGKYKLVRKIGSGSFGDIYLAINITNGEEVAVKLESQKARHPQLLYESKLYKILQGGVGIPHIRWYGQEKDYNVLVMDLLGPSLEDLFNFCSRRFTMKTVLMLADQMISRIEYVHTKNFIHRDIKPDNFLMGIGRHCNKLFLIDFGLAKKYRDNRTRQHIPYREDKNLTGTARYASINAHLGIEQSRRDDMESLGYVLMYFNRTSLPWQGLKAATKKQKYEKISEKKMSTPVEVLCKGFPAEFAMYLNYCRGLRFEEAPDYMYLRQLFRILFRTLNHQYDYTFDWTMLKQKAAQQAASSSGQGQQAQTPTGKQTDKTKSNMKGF
T5 sequence (Q96SW2 whole entry): as the sequence (Q96SW2 whole entry) above
T5 sequence (Q16531 whole entry partner): as the sequence (Q16531 whole entry partner) above

[6] = target: T6, GSPT1 (Homo sapiens, UniProt P15170+Q96SW2); test: Western-blot assay of substrate protein degradation in hPBMCs, GSPT1; format: cell-based; details: 24 hours of compound treatment
T6 construct: endogenous in cells; host or cells: hPBMCs (Milecell Biotechnologies)
T6 sequence (P15170 whole entry): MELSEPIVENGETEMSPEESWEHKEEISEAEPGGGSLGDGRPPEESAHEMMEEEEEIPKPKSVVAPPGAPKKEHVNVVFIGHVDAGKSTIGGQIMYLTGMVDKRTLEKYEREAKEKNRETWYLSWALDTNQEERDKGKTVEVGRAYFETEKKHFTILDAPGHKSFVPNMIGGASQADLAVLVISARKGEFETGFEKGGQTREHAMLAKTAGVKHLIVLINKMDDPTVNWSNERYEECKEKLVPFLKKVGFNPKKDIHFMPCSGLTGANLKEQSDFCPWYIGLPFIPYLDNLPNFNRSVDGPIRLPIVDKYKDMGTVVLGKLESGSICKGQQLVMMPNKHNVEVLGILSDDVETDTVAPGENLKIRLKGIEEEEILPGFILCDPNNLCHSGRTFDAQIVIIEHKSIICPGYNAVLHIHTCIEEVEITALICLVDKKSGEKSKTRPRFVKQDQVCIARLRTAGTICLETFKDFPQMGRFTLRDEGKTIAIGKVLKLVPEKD
T6 sequence (Q96SW2 whole entry): as the sequence (Q96SW2 whole entry) above
T6 sequence (Q16531 whole entry partner): as the sequence (Q16531 whole entry partner) above

[7] = target: T7, human Cereblon WT GST-tagged protein (Homo sapiens, UniProt Q96SW2); test: CRBN-binding affinity by HTRF (CEREBLON BINDING kit); details: HTRF inhibitory activity, CEREBLON BINDING kit; read-out: HTRF IC50
T7 construct: purchased CISBIO 64BDCRBNPEH
T7 sequence (Q96SW2 whole entry): as the sequence (Q96SW2 whole entry) above

[8] = compounds tested at 50 nM and 500 nM (concentration of the table not stated)
[9] = 50 nM and 500 nM tested (concentration behind the class not stated)

T1 sequence (P30291 whole entry): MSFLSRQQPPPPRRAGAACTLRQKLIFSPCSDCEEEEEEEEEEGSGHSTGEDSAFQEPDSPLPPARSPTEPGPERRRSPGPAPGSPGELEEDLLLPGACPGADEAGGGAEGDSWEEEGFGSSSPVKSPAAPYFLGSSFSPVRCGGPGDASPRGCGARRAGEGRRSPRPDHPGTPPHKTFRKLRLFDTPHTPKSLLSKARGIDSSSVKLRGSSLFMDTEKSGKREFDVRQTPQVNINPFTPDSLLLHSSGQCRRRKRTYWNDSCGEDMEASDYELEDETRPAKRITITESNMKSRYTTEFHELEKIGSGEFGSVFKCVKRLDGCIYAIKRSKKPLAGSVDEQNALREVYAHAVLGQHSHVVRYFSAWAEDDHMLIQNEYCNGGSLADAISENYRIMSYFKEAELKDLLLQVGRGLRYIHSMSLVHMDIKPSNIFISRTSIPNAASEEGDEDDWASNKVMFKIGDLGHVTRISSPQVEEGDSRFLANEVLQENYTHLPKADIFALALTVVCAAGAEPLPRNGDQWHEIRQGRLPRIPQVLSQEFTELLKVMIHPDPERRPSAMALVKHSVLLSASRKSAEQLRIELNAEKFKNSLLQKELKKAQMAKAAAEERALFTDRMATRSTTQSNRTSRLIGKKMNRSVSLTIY
T1 sequence (Q96SW2 whole entry): as the sequence (Q96SW2 whole entry) above
T1 sequence (Q16531 whole entry partner): as the sequence (Q16531 whole entry partner) above

Row | IC50 [7] | Structure (SMILES) | Weel substrate protein remaining % [1, 8] | IKZF 1 substrate protein remaining % [2, 8] | IKZF2 substrate protein remaining % [3, 8] | IKZF3 substrate protein remaining % [4, 8] | CK1a substrate protein remaining % [5, 8] | GSPT1 substrate protein remaining % [6, 8] | Weel substrate protein remaining % [1, 9] | IKZF 1 substrate protein remaining % [2, 9] | IKZF2 substrate protein remaining % [3, 9] | IKZF3 substrate protein remaining % [4, 9] | CK1a substrate protein remaining % [5, 9] | GSPT1 substrate protein remaining % [6, 9]
1 | < 500 nM | O=C1CCC(N2Cc3cc(CN4CCN(c5ncnc6sc(Br)cc56)CC4)ccc3C2=O)C(=O)N1 (stereo not drawn) [GT-04861, 3-(5-((4-(6-bromothieno[2,3-d]pyrimidin-4-yl)piperazin-1-yl)methyl)-1-oxoisoindolin-2-yl)piperidine-2,6-dione] | A (0% ≤ substrate protein remaining % ≤ 80%) | A (0% ≤ substrate protein remaining % ≤ 80%) | A (0% ≤ substrate protein remaining % ≤ 80%) | A (0% ≤ substrate protein remaining % ≤ 80%) | A (0% ≤ substrate protein remaining % ≤ 80%) | A (0% ≤ substrate protein remaining % ≤ 80%) | – | – | – | – | – | –
2 | < 500 nM | O=C1CCC(N2Cc3cc(CN4CCN(c5ncnc6sc7c(c56)CCC7)CC4)ccc3C2=O)C(=O)N1 (stereo not drawn) [GT-04996, 3-(5-((4-(6,7-dihydro-5H-cyclopenta[4,5]thieno[2,3-d]pyrimidin-4-yl)piperazin-1-yl)methyl)-1-oxoisoindolin-2-yl)piperidine-2,6-dione] | A (0% ≤ substrate protein remaining % ≤ 80%) | A (0% ≤ substrate protein remaining % ≤ 80%) | A (0% ≤ substrate protein remaining % ≤ 80%) | A (0% ≤ substrate protein remaining % ≤ 80%) | A (0% ≤ substrate protein remaining % ≤ 80%) | A (0% ≤ substrate protein remaining % ≤ 80%) | – | – | – | – | – | –
3 | 500 to 1000 nM | Cc1nc(C2CCN(Cc3ccc4c(c3)CN(C3CCC(=O)NC3=O)C4=O)CC2)c2c3c(sc2n1)CCC3 (stereo not drawn) [GT-05210, 3-(5-((4-(2-methyl-6,7-dihydro-5H-cyclopenta[4,5]thieno[2,3-d]pyrimidin-4-yl)piperidin-1-yl)methyl)-1-oxoisoindolin-2-yl)piperidine-2,6-dione] | A (0% ≤ substrate protein remaining % ≤ 80%) | A (0% ≤ substrate protein remaining % ≤ 80%) | A (0% ≤ substrate protein remaining % ≤ 80%) | A (0% ≤ substrate protein remaining % ≤ 80%) | A (0% ≤ substrate protein remaining % ≤ 80%) | B (80%< substrate protein remaining %≤ 100%) | – | – | – | – | – | –
4 | 500 to 1000 nM | O=C1CCC(N2Cc3cc(CN4CCN(c5ccncc5Cl)CC4)ccc3C2=O)C(=O)N1 (stereo not drawn) [GT-04481, 3-(5-((4-(3-chloropyridin-4-yl)piperazin-1-yl)methyl)-1-oxoisoindolin-2-yl)piperidine-2,6-dione] | A (0% ≤ substrate protein remaining % ≤ 80%) | A (0% ≤ substrate protein remaining % ≤ 80%) | A (0% ≤ substrate protein remaining % ≤ 80%) | B (80%< substrate protein remaining %≤ 100%) | A (0% ≤ substrate protein remaining % ≤ 80%) | A (0% ≤ substrate protein remaining % ≤ 80%) | – | – | – | – | – | –
5 | 500 to 1000 nM | O=C1CCC(N2Cc3cc(CN4CCN(c5cccnn5)CC4)ccc3C2=O)C(=O)N1 (stereo not drawn) [GT-04473, 3-(1-oxo-5-((4-(pyridazin-3-yl)piperazin-1-yl)methyl)isoindolin-2-yl)piperidine-2,6-dione] | A (0% ≤ substrate protein remaining % ≤ 80%) | A (0% ≤ substrate protein remaining % ≤ 80%) | B (80%< substrate protein remaining %≤ 100%) | B (80%< substrate protein remaining %≤ 100%) | B (80%< substrate protein remaining %≤ 100%) | A (0% ≤ substrate protein remaining % ≤ 80%) | – | – | – | – | – | –
6 | 1000 to 1500 nM | CCc1cnc(C2CCN(Cc3ccc4c(c3)CN(C3CCC(=O)NC3=O)C4=O)CC2)nc1 (stereo not drawn) [GT-04936, 3-(5-((4-(5-ethylpyrimidin-2-yl)piperidin-1-yl)methyl)-1-oxoisoindolin-2-yl)piperidine-2,6-dione] | A (0% ≤ substrate protein remaining % ≤ 80%) | A (0% ≤ substrate protein remaining % ≤ 80%) | A (0% ≤ substrate protein remaining % ≤ 80%) | A (0% ≤ substrate protein remaining % ≤ 80%) | A (0% ≤ substrate protein remaining % ≤ 80%) | A (0% ≤ substrate protein remaining % ≤ 80%) | – | – | – | – | – | –
7 | 1000 to 1500 nM | O=C1CCC(N2C(=O)c3ccc(CN4CC=C(c5ncnc6scc(-c7ccccc7)c56)CC4)cc3C2=O)C(=O)N1 (stereo not drawn) [GT-06676, 2-(2,6-dioxopiperidin-3-yl)-5-((4-(5-phenylthieno[2,3-d]pyrimidin-4-yl)-3,6-dihydropyridin-1(2H)-yl)methyl)isoindoline-1,3-dione] | – | – | – | – | – | – | A (0% ≤ substrate protein remaining % ≤ 80%) | B (80%< substrate protein remaining %≤ 100%) | B (80%< substrate protein remaining %≤ 100%) | B (80%< substrate protein remaining %≤ 100%) | A (0% ≤ substrate protein remaining % ≤ 80%) | B (80%< substrate protein remaining %≤ 100%)
8 | 500 to 1000 nM | Cc1cc2c(N3CCN(Cc4ccc5c(c4)CN(C4CCC(=O)NC4=O)C5=O)CC3)ncnc2s1 (stereo not drawn) [GT-04680, 3-(5-((4-(6-methylthieno[2,3-d]pyrimidin-4-yl)piperazin-1-yl)methyl)-1-oxoisoindolin-2-yl)piperidine-2,6-dione] | B (80%< substrate protein remaining %≤ 100%) | B (80%< substrate protein remaining %≤ 100%) | B (80%< substrate protein remaining %≤ 100%) | B (80%< substrate protein remaining %≤ 100%) | A (0% ≤ substrate protein remaining % ≤ 80%) | A (0% ≤ substrate protein remaining % ≤ 80%) | – | – | – | – | – | –

Row | Structure (SMILES) | IC50 [7] | Weel substrate protein remaining % [1, 8] | IKZF 1 substrate protein remaining % [2, 8] | IKZF2 substrate protein remaining % [3, 8] | IKZF3 substrate protein remaining % [4, 8] | CK1a substrate protein remaining % [5, 8] | GSPT1 substrate protein remaining % [6, 8] | Weel substrate protein remaining % [1, 9] | IKZF 1 substrate protein remaining % [2, 9] | IKZF2 substrate protein remaining % [3, 9] | IKZF3 substrate protein remaining % [4, 9] | CK1a substrate protein remaining % [5, 9] | GSPT1 substrate protein remaining % [6, 9]
9 | O=C1CCC(N2C(=O)c3ccc(CN4CC=C(c5ccco5)CC4)cc3C2=O)C(=O)N1 (stereo not drawn) [GT-06222, 2-(2,6-dioxopiperidin-3-yl)-5-((4-(furan-2-yl)-3,6-dihydropyridin-1(2H)-yl)methyl)isoindoline-1,3-dione] | 1000 to 1500 nM | – | – | – | – | – | – | A (0% ≤ substrate protein remaining % ≤ 80%) | A (0% ≤ substrate protein remaining % ≤ 80%) | A (0% ≤ substrate protein remaining % ≤ 80%) | A (0% ≤ substrate protein remaining % ≤ 80%) | A (0% ≤ substrate protein remaining % ≤ 80%) | A (0% ≤ substrate protein remaining % ≤ 80%)
